Results: patent US10906894B2, “Compounds containing benzo[d][1,3]oxathiole, benzo[d][1,3]oxathiole 3-oxide or benzo[d][1,3]oxathiole 3,3-dioxide and methods/uses thereof as agonists of g protein-coupled receptor 119” (PRAMANA PHARMACEUTICALS INC., priority 2016, dated 2021)
Like-named read-outs stand apart in the source and are kept apart here.

Molecular target: T1, GPR119 (Homo sapiens, UniProt Q8TDV5)
T1 sequence (Q8TDV5 1-335): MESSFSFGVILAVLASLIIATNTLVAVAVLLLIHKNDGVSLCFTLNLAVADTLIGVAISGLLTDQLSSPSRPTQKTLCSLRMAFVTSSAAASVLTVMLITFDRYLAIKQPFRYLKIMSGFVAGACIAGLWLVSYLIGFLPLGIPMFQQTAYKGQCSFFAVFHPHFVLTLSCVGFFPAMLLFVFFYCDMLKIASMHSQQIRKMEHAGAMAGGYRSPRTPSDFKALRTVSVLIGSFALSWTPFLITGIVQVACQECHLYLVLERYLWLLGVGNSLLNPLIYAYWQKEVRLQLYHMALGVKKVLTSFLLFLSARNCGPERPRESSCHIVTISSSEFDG
Experiment: LANCE Ultra cAMP assay: stimulation of GPR119-mediated cAMP production in CHO cells stably expressing human GPR119 receptor
Assay type: cell-based
Conditions: for Emax: CHO, read-out: % cAMP Max. relative to forscolin
Procedure: The potency of GPR119 receptor agonists was assessed by measuring the stimulation of GPR119-mediated cAMP production with LANCE Ultra cAMP assay (Perkin Elmer, TRF0264) in CHO cells stably expressing human GPR119 receptor (Chantest, cat. #A633). CHO-GPR119 cells were cultured in DMEM/F12 medium supplemented with 10% FBS and 1% NEAA at 37° C., 5% CO2, aliquoted and frozen in liquid nitrogen.
(§1) For assay, cells were thawed in a water bath at 37° C., washed in Hank's Balanced Salt Solution (HBSS) and resuspended in Stimulation Buffer 1 (SB1) for 30 min: 5 mM HEPES, pH 7.2-7.4, 0.1% BSA in HBSS. […] The ULight-anti-cAMP antibody (Perkin Elmer, TRF0264) was added to the cell suspension making Mix [Cell suspension/4× ULight-anti-cAMP antibodies]. […] The assay plate was centrifuged 200 g, 5 sec.
Serial dilution (100×) of tested compounds were prepared in DMSO in the range of from 30 nM to 1 mM with half-log step in 384-well plates (Greiner, 781280) using Biomek 2000. 10 test concentrations in two repeats were prepared for each CRC. […] The assay plate was incubated 30 minutes at room temperature on a shaker, 250 rpm to allow GPR119 receptor stimulation. The cAMP level was determined according to the standard kit supplier protocol (PerkinElmer, cat. #TRF0264).
(§2) The stock solution of the Eu-cAMP tracer (Perkin Elmer, TRF0264) was diluted 1:100 in cAMP Detection Buffer (Perkin Elmer, TRF0264), making 2× working concentration and added to the assay plate, 10 μL per well. Assay plate was centrifuged 180 g, 1 sec. Then the assay plate was incubated for 60′ at room temperature on shaker, 250 rpm to allow cAMP detection. The TR-FRET signal was measured at Ex-340 nm/Em-615 and Ex-340 nm/Em-665 nm on the reader Tecan M1000. 0% of cAMP stimulation corresponds to the cells with DMSO only, 100% of cAMP stimulation corresponds to the cells with 10 uM Forskolin. The EC50 value defined as the concentration of the drug that gives half-maximal response, were calculated using GraphPad Prizm 5.0 software with forskolin was used as references at each test. Entries 1-17 in Table A-2 show the biological activity of certain representative compounds using the protocol as described above.
as §1, with “cell suspension,” for “cell suspension”
as §2, with “1-14” for “1-17”, “B-2” for “A-2”

[1] = Table A-2 entries 1-17, protocol as described, 100% = 10 uM Forskolin
[2] = Table A-2 entries 1-17, protocol as described (800 000 cells/mL, 5 uL/well), CHO-GPR119 cells
[3] = Table A-2 entries 18-25, modified protocol, 500 cells/well
[4] = Table B-2 entries 1-14, protocol as described (800 000 cells/mL, 5 uL/well), CHO-GPR119 cells

| Emax [1] [%] | EC50 [2] [nM] | Emax [3] [%] | EC50 [3] [nM] | EC50 [4] [nM] | Compound |
| --- | --- | --- | --- | --- | --- |
| 75 | 833 | – | – | – | CC(C)(C)N1CCC(COc2ccc(-c3ccc4c(c3)OCS4(=O)=O)cc2F)CC1 [A-13] |
| 77 | 86.4 | – | – | – | CN(C)C(=O)N1CCC(COc2ccc(-c3ccc4c(c3)OCS4(=O)=O)cc2F)CC1 [A-14] |
| 80 | 61.7 | – | – | – | CC(C)(C)C(=O)N1CCC(COc2ccc(-c3ccc4c(c3)OCS4(=O)=O)cc2F)CC1 [A-15] |
| 67 | ≥ 10000 | – | – | – | NCC(=O)N1CCC(COc2ccc(-c3ccc4c(c3)OCS4(=O)=O)cc2F)CC1 [A-17] |
| 65 | 4080 | – | – | – | CC(C)[C@H](N)C(=O)N1CCC(COc2ccc(-c3ccc4c(c3)OCS4(=O)=O)cc2F)CC1 [A-19] |
| 70 | ≥ 10000 | – | – | – | NC(=O)N1CCC(COc2ccc(-c3ccc4c(c3)OCS4(=O)=O)cc2F)CC1 [A-20] |
| 77 | 37 | – | – | – | CC(C)C(=O)N1CCC(COc2ccc(-c3ccc4c(c3)OCS4(=O)=O)cc2F)CC1 [A-21] |
| 77 | 2.5 | – | – | – | CCc1cnc(N2CCC(COc3ccc(-c4ccc5c(c4)OCS5(=O)=O)cc3F)CC2)nc1 [A-24] |
| 80 | 33.1 | – | – | – | O=S1(=O)COc2cc(-c3cnc(OCC4CCN(c5ncc(Cl)cn5)CC4)nc3)ccc21 [A-29, 6-(2-((1-(5-Chloropyrimidin-2-yl)piperidin-4-yl)methoxy)pyrimidin-5-yl)-2H-benzo[d][1,3]oxathiole 3,3-dioxide] |
| 65 | 369 | – | – | – | O=S1(=O)COc2ccc(-c3ccc(OCC4CCN(c5ncc(Cl)cn5)CC4)c(F)c3)cc21 [A-40] |
| 75 | 102 | – | – | – | O=S1(=O)COc2cc(-c3ccc(OCC4CCN(c5ncncn5)CC4)c(F)c3)ccc21 [A-42, 6-(4-((1-(1,3,5-Triazin-2-yl)piperidin-4-yl)methoxy)-3-fluorophenyl)-2H-benzo[d][1,3]oxathiole 3,3-dioxide] |
| 80 | 67 | – | – | – | O=S1(=O)COc2cc(-c3ccc(OCC4CN(c5ncc(Cl)cn5)C4)c(F)c3)ccc21 [A-48, 6-(4-((1-(5-Chloropyrimidin-2-yl)azetidin-3-yl)methoxy)-3-fluorophenyl)-2H-benzo[d][1,3]oxathiole 3,3-dioxide] |
| 81 | 24 | – | – | – | CC(C)c1noc(N2CC(COc3ccc(-c4ccc5c(c4)OCS5(=O)=O)cc3F)C2)n1 [A-52, 6-(3-Fluoro-4-((1-(3-isopropyl-1,2,4-oxadiazol-5-yl)azetidin-3-yl)methoxy)phenyl)-2H-benzo[d][1,3]oxathiole 3,3-dioxide] |
| 73 | 96 | – | – | – | O=S1(=O)COc2cc(-c3ccc(OCc4cnc(C5CCN(c6ncc(Cl)cn6)CC5)s4)c(F)c3)ccc21 [Example A-58, 6-(4-((2-(1-(5-Chloropyrimidin-2-yl)piperidin-4-yl)thiazol-5-yl)methoxy)-3-fluorophenyl)-2H-benzo[d][1,3]oxathiole-3,3-dioxide] |
| 77 | 5.4 | – | – | – | CC(C)c1noc(N2CCC(COc3ccc(-c4ccc5c(c4)OCS5(=O)=O)cc3F)CC2)n1 [Example A-59, 6-(3-Fluoro-4-((1-(3-isopropyl-1,2,4-oxadiazol-5-yl)piperidin-4-yl)methoxy)phenyl)-2H-benzo[d][1,3]oxathiole 3,3-dioxide] |
| – | – | 80 | 19.1 | – | CC(C)c1cnc(N2CCC(COc3ccc(-c4ccc5c(c4)OCS5(=O)=O)cc3F)CC2)nc1 [Example A-66, 6-(3-Fluoro-4-(1-(5-isopropylpyrimidin-2-yl)piperidin-4-yl)methoxy)phenyl-2H-benzo[d][1,3]oxathiole 3,3-dioxide] |
| – | – | 72 | 21.4 | – | COc1cnc(N2CCC(COc3ccc(-c4ccc5c(c4)OCS5(=O)=O)cc3F)CC2)nc1 [Example A-67, 6-(3-Fluoro-4-(1-(5-methoxypyrimidin-2-yl)piperidin-4-yl)methoxy)phenyl-2H-benzo[d][1,3]oxathiole 3,3-dioxide] |
| – | – | 51 | 1690 | – | CCc1cnc(N2CCC[C@@H]2COc2ccc(-c3ccc4c(c3)OCS4(=O)=O)cc2F)nc1 [Example A-71] |
| – | – | 87 | 8.2 | – | CCc1cnc(N2CCC(COc3cnc(-c4ccc5c(c4)OCS5(=O)=O)nc3)CC2)nc1 [Example A-76, 6-(5-((1-(5-Ethylpyrimidin-2-yl)piperidin-4-yl)methoxy)pyrimidin-2-yl)-2H-benzo[d][1,3]oxathiole 3,3-dioxide] |
| – | – | 25 | 1310 | – | CCc1cnc(N2CCC[C@H]2COc2ccc(-c3ccc4c(c3)OCS4(=O)=O)cc2F)nc1 [Example A-80] |
| – | – | 96 | 166 | – | CCc1cnc(N2CC[C@H](COc3ccc(-c4ccc5c(c4)OCS5(=O)=O)cc3F)C2)nc1 [Example A-86, (S)-6-(4-((1-(5-Ethylpyrimidin-2-yl)pyrrolidin-3-yl)methoxy)-3-fluorophenyl)-2H-benzo[d][1,3]oxathiole 3,3-dioxide] |
| – | – | 93 | 46 | – | O=S1(=O)COc2cc(-c3ccc(OC[C@H]4CCN(c5ncc(Cl)cn5)C4)c(F)c3)ccc21 [Example A-89, (S)-6-(4-((1-(5-Chloropyrimidin-2-yl)pyrrolidin-3-yl)methoxy)-3-fluorophenyl)-2H-benzo[d][1,3]oxathiole 3,3-dioxide] |
| – | – | 90 | 58 | – | CCc1ccnc(N2CC[C@H](COc3ccc(-c4ccc5c(c4)OCS5(=O)=O)cc3F)C2)n1 [Example A-92, (S)-6-(4-((1-(4-Ethylpyrimidin-2-yl)pyrrolidin-3-yl)methoxy)-3-fluorophenyl)-2H-benzo[d][1,3]oxathiole 3,3-dioxide] |
| – | – | – | – | 280 | Fc1cc(-c2ccc3c(c2)OCS3)ccc1OCC1CCN(c2ncc(Cl)cn2)CC1 [Example B-12] |
| – | – | – | – | 2.3 | [O-][S+]1COc2cc(-c3ccc(OCC4CCN(c5ncc(Cl)cn5)CC4)c(F)c3)ccc21 (stereo not shown) [Example B-16, 6-(4-((1-(5-Chloropyrimidin-2-yl)piperidin-4-yl)methoxy)-3-fluorophenyl)-2H-benzo[d][1,3]oxathiole 3-oxide] |
| – | – | – | – | > 100 | CC(C)(C)OC(=O)N1CCC(COc2ccc(-c3ccc4c(c3)OC[S+]4[O-])cc2F)CC1 (stereo not shown) [Example B-17, tert-Butyl 4-((2-fluoro-4-(3-oxido-1,3-benzoxathiol-6-yl)phenoxy)methyl) piperidine-1-carboxylate] |
| – | – | – | – | > 500 | [O-][S+]1COc2cc(-c3ccc(OCC4CCNCC4)c(F)c3)ccc21 (stereo not shown) [Example B-18] |

| Compound | Emax [1] [%] | EC50 [2] [nM] | Emax [3] [%] | EC50 [3] [nM] | EC50 [4] [nM] |
| --- | --- | --- | --- | --- | --- |
| O=S1(=O)COc2cc(-c3ccc(N4CCN(c5ncc(Cl)cn5)CC4)c(F)c3)ccc21 [Example A-65, 6-(4-(5-Chloropyrimidin-2-yl)piperazin-1-yl)-3-fluorophenyl-2H-benzo[d][1,3]oxathiole 3,3-dioxide] | 84 | 112 | – | – | – |
